# In ChEMBL document CHEMBL4312037, “Fragment hopping-based discovery of novel sulfinylacetamide-diarylpyrimidines (DAPYs) as HIV-1 nonnucleoside reverse transcriptase inhibitors” (Eur J Med Chem, 2020):
# Columns and labels:
# [1] = in vitro; details: human, MT4 cells; MT4 cells infected with HIV1 3B K103N mutant
# Description: Selectivity index, ratio of CC50 for cytotoxicity against human MT4 cells to EC50 for antiviral activity against HIV1 3B harbouring NNRTI K103N mutant infected in human MT4 cells
# [2] = in vitro; details: human, MT4 cells; MT4 cells infected with HIV1 3B
# Description: Selectivity index, ratio of CC50 for cytotoxicity against human MT4 cells to EC50 for antiviral activity against HIV1 3B infected in human MT4 cells
# [3] = tested on: Human immunodeficiency virus 1; assay: Antiviral activity against HIV1 3B harbouring NNRTI K103N mutant infected in human MT4 cells assessed as virus-induced cytopathic effect incubated for 5 days by MTT assay; type: functional, organism-based; details: Human immunodeficiency virus 1, 3B, MT4, 120 h
# [4] = Cytotoxicity against human MT4 cells assessed as reduction in cell viability incubated for 5 days by MTT assay; type: cell-based
# [5] = tested on: Human immunodeficiency virus 1; assay: Antiviral activity against HIV1 3B infected in human MT4 cells assessed as virus-induced cytopathic effect incubated for 5 days by MTT assay; type: functional, organism-based; details: Human immunodeficiency virus 1, 3B, MT4, 120 h
SMILES,selectivity ratio [1],selectivity ratio [2],EC50 [3],CC50 at 120 h [4],EC50 [5]
COc1cc2nc([S+]([O-])CC(=O)Nc3ccc(F)cc3)nc(Nc3c(C)cc(/C=C/C#N)cc3C)c2cc1OC (stereo unspecified),833,209,0.0329 µM,27.4 µM,0.131 µM
COc1cc2nc(SCC(=O)Nc3ccc(C(F)(F)F)cc3)nc(Nc3c(C)cc(/C=C/C#N)cc3C)c2cc1OC,> 87,> 40,2.41 µM,> 211 µM,5.28 µM
COc1cc2nc(SCC(=O)Nc3cccc(Cl)c3)nc(Nc3c(Cl)cc(/C=C/C#N)cc3Cl)c2cc1OC,–,> 1,–,> 208 µM,> 208 µM
COc1cc2nc([S+]([O-])CC(=O)Nc3cccc(S(N)(=O)=O)c3)nc(Nc3c(Cl)cc(/C=C/C#N)cc3Cl)c2cc1OC (stereo unspecified),–,< 1,–,67.8 µM,> 67.8 µM
COc1cc2nc([S+]([O-])CC(=O)Nc3ccc(C)cc3)nc(Nc3c(Cl)cc(/C=C/C#N)cc3Cl)c2cc1OC (stereo unspecified),657,98,0.049 µM,32.2 µM,0.327 µM
Cc1cc(C#N)cc(C)c1Oc1nc(Nc2ccc(C#N)cc2)nc(N)c1Br [ETRAVIRINE],–,–,0.0037 µM,> 4.59 µM,0.0042 µM
O=C1Nc2ccc(Cl)cc2[C@@](C#CC2CC2)(C(F)(F)F)O1 [EFAVIRENZ],–,–,0.124 µM,> 6.34 µM,0.0038 µM
COc1cc2nc(SCC(=O)Nc3ccc(Cl)cc3)nc(Nc3c(Cl)cc(/C=C/C#N)cc3Cl)c2cc1OC,44,24,0.677 µM,29.5 µM,1.25 µM
COc1cc2nc([S+]([O-])CC(=O)Nc3ccc(C(F)(F)F)cc3)nc(Nc3c(C)cc(/C=C/C#N)cc3C)c2cc1OC (stereo unspecified),210,116,0.249 µM,52.2 µM,0.45 µM
COc1cc2nc([S+]([O-])CC(=O)Nc3ccccc3C(F)(F)F)nc(Nc3c(Cl)cc(/C=C/C#N)cc3Cl)c2cc1OC (stereo unspecified),–,> 3,> 192 µM,> 192 µM,67.1 µM
COc1cc2nc([S+]([O-])CC(=O)Nc3ccc([N+](=O)[O-])cc3)nc(Nc3c(Cl)cc(/C=C/C#N)cc3Cl)c2cc1OC (stereo unspecified),2990,2410,0.031 µM,92.8 µM,0.0385 µM
COc1cc2nc([S+]([O-])CC(=O)Nc3ccccc3F)nc(Nc3c(Cl)cc(/C=C/C#N)cc3Cl)c2cc1OC (stereo unspecified),> 37,> 12,5.66 µM,> 208 µM,17 µM
COc1cc2nc([S+]([O-])CC(=O)Nc3cccc([N+](=O)[O-])c3)nc(Nc3c(Cl)cc(/C=C/C#N)cc3Cl)c2cc1OC (stereo unspecified),≥ 308,≥ 197,0.27 µM,≥ 83.2 µM,0.423 µM
COc1ccccc1NC(=O)C[S+]([O-])c1nc(Nc2c(Cl)cc(/C=C/C#N)cc2Cl)c2cc(OC)c(OC)cc2n1 (stereo unspecified),> 132,> 63,1.54 µM,> 204 µM,3.22 µM
COc1cc2nc([S+]([O-])CC(=O)Nc3ccc(C#N)cc3)nc(Nc3c(Cl)cc(/C=C/C#N)cc3Cl)c2cc1OC (stereo unspecified),≥ 4420,≥ 3240,0.0426 µM,≥ 188 µM,0.0582 µM
COc1cc2nc([S+]([O-])CC(=O)Nc3cccc(C(F)(F)F)c3)nc(Nc3c(Cl)cc(/C=C/C#N)cc3Cl)c2cc1OC (stereo unspecified),35,17,0.626 µM,21.8 µM,1.27 µM
COc1cc2nc([S+]([O-])CC(=O)Nc3ccccc3C#N)nc(Nc3c(Cl)cc(/C=C/C#N)cc3Cl)c2cc1OC (stereo unspecified),> 18,> 7,11.7 µM,> 206 µM,30.6 µM

SMILES,selectivity ratio [1],selectivity ratio [2],EC50 [3],CC50 at 120 h [4],EC50 [5]
COc1cc2nc(Nc3ccc(C#N)cc3)nc(Nc3c(C)cc(/C=C/C#N)cc3F)c2cc1OC,> 4720,> 4250,0.011 µM,> 52 µM,0.0122 µM
COc1cc2nc(Nc3ccc(C#N)cc3)nc(Nc3c(F)cc(/C=C/C#N)cc3F)c2cc1OC,355,156,0.0181 µM,6.4 µM,0.0411 µM
COc1cc2nc([S+]([O-])CC(=O)Nc3cc([N+](=O)[O-])ccc3F)nc(Nc3c(Cl)cc(/C=C/C#N)cc3Cl)c2cc1OC (stereo unspecified),> 32,> 24,6 µM,> 194 µM,8.08 µM
COc1cccc(NC(=O)C[S+]([O-])c2nc(Nc3c(Cl)cc(/C=C/C#N)cc3Cl)c3cc(OC)c(OC)cc3n2)c1 (stereo unspecified),≥ 439,≥ 70,0.465 µM,≥ 167 µM,2.37 µM
COc1cc2nc([S+]([O-])CC(=O)Nc3ccc(S(N)(=O)=O)cc3)nc(Nc3c(Cl)cc(/C=C/C#N)cc3Cl)c2cc1OC (stereo unspecified),> 21,> 10,9.19 µM,> 189 µM,19.3 µM
COc1cc2nc([S+]([O-])CC(=O)Nc3cccc(Cl)c3)nc(Nc3c(Cl)cc(/C=C/C#N)cc3Cl)c2cc1OC (stereo unspecified),1000,220,0.0687 µM,68.9 µM,0.313 µM
COc1cc2nc([S+]([O-])CC(=O)Nc3cccc(C#N)c3)nc(Nc3c(Cl)cc(/C=C/C#N)cc3Cl)c2cc1OC (stereo unspecified),≥ 1840,≥ 706,0.0383 µM,≥ 70.3 µM,0.0996 µM
COc1cc2nc(SCC(=O)Nc3ccc(C)cc3)nc(Nc3c(Cl)cc(/C=C/C#N)cc3Cl)c2cc1OC,–,< 1,–,2.54 µM,> 2.53 µM
COc1cc2nc([S+]([O-])CC(=O)Nc3cccc(F)c3)nc(Nc3c(Cl)cc(/C=C/C#N)cc3Cl)c2cc1OC (stereo unspecified),137,40,0.0696 µM,9.55 µM,0.237 µM
COc1cc2nc(SCC(=O)Nc3cc([N+](=O)[O-])ccc3F)nc(Nc3c(Cl)cc(/C=C/C#N)cc3Cl)c2cc1OC,–,> 1,–,> 199 µM,> 199 µM
COc1cc2nc([S+]([O-])CC(=O)Nc3ccc(Cl)cc3)nc(Nc3c(Cl)cc(/C=C/C#N)cc3Cl)c2cc1OC (stereo unspecified),550,313,0.0263 µM,14.4 µM,0.0461 µM
COc1cc2nc(SCC(=O)Nc3ccc(S(N)(=O)=O)cc3)nc(Nc3c(Cl)cc(/C=C/C#N)cc3Cl)c2cc1OC,–,< 1,–,116 µM,> 116 µM
Cc1ccnc2c1NC(=O)c1cccnc1N2C1CC1 [NEVIRAPINE],–,–,≥ 11.2 µM,> 15 µM,0.235 µM
COc1cc2nc([S+]([O-])CC(=O)Nc3ccccc3[N+](=O)[O-])nc(Nc3c(Cl)cc(/C=C/C#N)cc3Cl)c2cc1OC (stereo unspecified),–,–,–,> 199 µM,> 199 µM
COc1cc2nc(SCC(=O)Nc3ccc(C(F)(F)F)cc3)nc(Nc3c(Cl)cc(/C=C/C#N)cc3Cl)c2cc1OC,> 50,> 10,3.91 µM,> 197 µM,20 µM
COc1cc2nc([S+]([O-])CC(=O)Nc3c(C)cc(C)cc3C)nc(Nc3c(Cl)cc(/C=C/C#N)cc3Cl)c2cc1OC (stereo unspecified),–,1,–,8.87 µM,7.31 µM
COc1cc2nc(SCC(=O)Nc3cccc(S(N)(=O)=O)c3)nc(Nc3c(Cl)cc(/C=C/C#N)cc3Cl)c2cc1OC,–,> 1,–,> 194 µM,> 194 µM
